In doi:10.1101/2020.05.25.114512v1 (bioRxiv, 2020):
Converted amounts (≈) assume the structure as drawn.

Experiments:
Cytotoxic activity [1] = assay type: cell-based; details: human, KB-3-1 cells (cervix carcinoma)
[2] = system: pyocyanin produced by Pseudomonas aeruginosa strain PA14; assay: Pyocyanin assay; assay type: cell-based; details: administered to Pseudomonas aeruginosa
E. coli TolC mutants = assay: Bacterial cell entry test, LC-MS analysis; assay type: cell-based, Escherichia coli; details: concluded from fluorescence microscopy and LC-MS analysis
Cytotoxic activity [3] = assay type: cell-based; details: human, HCT-116 cells (colon carcinoma)
pancreatic elastase = details: previously listed in the literature; cited from earlier work
neurotensin = details: ref [25]; cited from earlier work

| Compound | IC50 at 5 days (Cytotoxic activity [1]) [µg/mL] | inhibition of pyocyanin production (in words) [2] | cell entry capabilities for E. coli (authors' conclusion, in words) (E. coli TolC mutants) | IC50 at 5 days (Cytotoxic activity [3]) [µg/mL] | inhibition of pancreatic elastase (in words) (pancreatic elastase) | IC50, neurotensin inhibitor (neurotensin) [µg/mL] |
| --- | --- | --- | --- | --- | --- | --- |
| CC[C@H](C)[C@@H]1NC(=O)[C@@H](N)Cc2ccc(OC)c(c2)-c2cc3cc(c2O)Oc2ccc(cc2)C[C@@H](C(=O)O)NC(=O)[C@H](C3)NC1=O [cittilin A] | 74.8 (≈ 119 µM) | no inhibition of pyocyanin production | poor cell entry capabilities | 110 (≈ 175 µM) | moderate inhibitor |  |
| YIYY (bicyclic or more) [cittilin B] |  |  |  |  |  | 30 |
